Experimental data as given in patent US10358434B2, “2-(3-pyridinyl)-1H-benzimidazole derivative compound and medicament containing same” (NIHON MEDI-PHYSICS CO., LTD., priority 2014, dated 2019).

Key:
[1] = system: human adrenal gland section expressing aldosterone-producing adenoma; assay: In vitro autoradiography using human adrenal adenoma; assay type: binding
Source text: From adrenal gland excised from a human patient for treatment of primary aldosteronism, a portion containing aldosterone-producing adenoma was removed and was then frozen. The frozen adrenal gland was embedded in an embedding agent for production of a frozen tissue section (Tissue-Tek O.C.T. Compound, Sakura Finetek Japan). Using a freezing microtome (CM3050S, Leica Microsystems), a 7-μm thin slice section, which is schematically shown in FIGS. 17(a) and 17(b), was produced, and was preserved at −20° C. before use. In FIGS. 17, 71a and 71b indicate aldosterone-producing adenomas, 72a and 72b indicate normal adrenal cortexes, and 73a and 73b indicate normal adrenal medullas. A 5-33 kBq/mL solution was prepared by adding a suitable amount of each of Compounds [^18F] 100, [^18F] 200, [^123I] 400, [^18F] 500, and [^123I] 601 to [^123I] 610, which were obtained by the methods described in Examples 2, 4, 7, 9, 11, 13, 15, 17, 19, 21, 23, 25, 27, and 29, or [^123I] IMTO to a phosphate-buffered physiological saline containing 1 w/v % bovine serum albumin (not containing fatty acid). The radioactivity concentration was measured using an autowell gamma system (ARC-7001, manufactured by Hitachi Aloka Medical, Ltd.). The section was immersed in the obtained sample solution for 10 minutes. For Compounds [^18F] 100, [^18F] 200, [^123I] 400, [^18F] 500, [^123I] 601 and [^123I] 602, the section shown in FIG. 17(a) was used, and for Compounds […] [^123I] IMTO, both sections shown in FIGS. 17(a) and (b) were used. Each sample solution was washed off, and the section was then exposed to an imaging plate (BAS-SR2040, manufactured by FUJIFILM Holdings Corporation) (IP) for 16-20 hours, and thereafter, an autoradiogram was obtained using a fluoro-image analyzer (FLA-7000, manufactured by FUJIFILM Holdings Corporation).
In order to quantitatively compare differences between images caused by ^123I and ^18F nuclides, a correction was made by calculating accumulation of radioactivity within the range of a region of interest (ROI) by means of integral calculation based on half-life, added radioactivity and IP contact time.
610. FIG. 18(b), FIG. 19(b), FIG. 20(b), FIG. 21(b), FIG. 22(a), FIG. 23(a), FIG. 24(a), FIG. 25(a), FIG. 26(a), FIG. 27(a), FIG. 28(a), FIG. 29(a), FIG. 30(a), and FIG. 31(a) each show an autoradiogram of [^123I] IMTO. […] 100, [^18F] 200, [^123I] 400, [^18F] 500, and [^123I] 601 to [^123I] […] The ROI having the same area as each other was established in a normal site and in a site in which aldosterone-producing adenoma had developed. Then, the PSL value (B1) indicating accumulation of radioactivity in the sites of normal adrenal cortexes 72a and 72b was compared with the PSL value (B2) indicating accumulation of radioactivity in the sites of aldosterone-producing adenomas 71a and 71b. In Table 7, the B1, B2 and B2/B1 values of [^18F] 100 indicate the mean values for the number of tests (n), respectively.

[2] = In vivo kinetics experiment (radioactivity distribution); parameters: species or system Wistar male rat; settings: rat; for Adrenal gland/blood ratio of radioactivity accumulation / Adrenal gland/fat ratio of radioactivity accumulation / Adrenal gland/kidney ratio of radioactivity accumulation / Adrenal gland/liver ratio of radioactivity accumulation / Adrenal gland/muscle ratio of radioactivity accumulation / Adrenal gland/small intestine ratio of radioactivity accumulation / Radioactivity distribution Adrenal gland / Radioactivity distribution Bladder (including urine) / Radioactivity distribution Blood / Radioactivity distribution Fat / Radioactivity distribution Femur / Radioactivity distribution Heart / Radioactivity distribution Kidney / Radioactivity distribution Large intestine / Radioactivity distribution Liver / Radioactivity distribution Lung / Radioactivity distribution Muscle (lower limbs) / Radioactivity distribution Remaining whole body / Radioactivity distribution Small intestine / Radioactivity distribution Spleen / Radioactivity distribution Stomach / Radioactivity distribution Testis / Radioactivity distribution Whole brain: caudal vein
Experimental: Each of Compounds [^18F] 100, [^18F] 200, [^123I] 400, [^18F] 500, and [^123I] 601 to 610 obtained by the methods described in Examples 2, 4, 7, 9, 11, 13, 15, 17, 19, 21, 23, 25, 27, and 29, or [^123I] IMTO, was diluted with a physiological saline containing 1 w/v % ascorbic acid to prepare a solution to be administered. The above described compound (approximately 1 to 3.7 MBq) was injected into the caudal vein of a Wistar male rat (9 weeks old) under anesthesia with a mixed gas of isoflurane/air, and ten minutes after the injection, the rat was sacrificed by exsanguination. From the thus sacrificed rat, blood and organs (heart, lung, stomach, liver, spleen, small intestine, large intestine, kidney, bladder (including urine), muscle (lower limbs), brain, adrenal gland, testis, fat, femur, or thyroid gland) were excised, and the weights thereof were then measured. Thereafter, radioactivity was measured in the blood, the individual excised organs, and the remaining whole body. Further, 30 and 60 minutes after the administration, the same operations as those described above were carried out. […] The symbol “n” in Tables 9 to 23 indicates the number of rats used. In addition, Tables 9 to 23 also show the ratio of radioactivity accumulation in adrenal grand (% ID/g) to radioactivity accumulation in each of blood, liver, kidney, small intestine, muscle and fat (% ID/g).

[3] = Plasma stability evaluation (TLC analysis); assay type: in vitro ADME; settings: 37° C., 60 minutes
Experimental: Evaluation was made using a heparin-treated normal human plasma pool (Kohjin Bio Co., Ltd.). Compounds [^18F] 100, [^18F] 200, [^123I] 400, [^18F] 500, and [^123I] 601 to 610 obtained by the methods shown in Examples 2, 4, 7, 9, 11, 13, 15, 17, 19, 21, 23, 25, 27, and 29 were each added to the aforementioned human plasma (5 mL), and the obtained mixture was then incubated at 37° C. for 60 minutes. Thereafter, the mixture was centrifuged with addition of methanol, so that a deproteinization treatment was carried out. Thereafter, stability was evaluated by TLC analysis. As TLC analysis conditions, the TLC analysis conditions applied upon the above described synthesis of each compound were applied.

**Q.** Which results are given for `Fc1cc2nc(-c3cncc(Cn4ccnc4)c3)n(CC[18F])c2cc1Cl` [[^18F] 100, 6-Chloro-5-fluoro-1-(2-[^18F]fluoroethyl)-2-[5-(imidazol-1-ylmethyl)pyridin-3-yl]benzimidazole]?
**A.** accumulation of radioactivity in adrenal gland section (autoradiogram) ([1]; FIGS. 18 to 31): accumulation of radioactivity was selectively observed in a region in which aldosterone-producing adenoma had been pathologically observed; B2/B1 accumulation ratio ([1]; section of FIG. 17(a)): 5.08; B2 (PSL value, aldosterone-producing adenoma) ([1]; section of FIG. 17(a), site 71a): 16480; B1 (PSL value, normal adrenal cortex) ([1]; section of FIG. 17(a), site 72a): 3241; accumulation of radioactivity in adrenal gland vs blood and peripheral tissues ([2]; Tables 9 to 22): high accumulation of radioactivity in adrenal gland was observed, in comparison to in blood and peripheral tissues; Adrenal gland/blood ratio of radioactivity accumulation ([2]; 10 min after administration): 137.96 ± 52.72; Adrenal gland/fat ratio of radioactivity accumulation ([2]; 10 min after administration): 141.33 ± 57.27; Adrenal gland/kidney ratio of radioactivity accumulation ([2]; 10 min after administration): 6.14 ± 2.01; Adrenal gland/liver ratio of radioactivity accumulation ([2]; 10 min after administration): 1.93 ± 0.69; Adrenal gland/muscle ratio of radioactivity accumulation ([2]; 10 min after administration): 63.25 ± 34.56; Adrenal gland/small intestine ratio of radioactivity accumulation ([2]; 10 min after administration): 9.89 ± 2.73; Radioactivity distribution Adrenal gland ([2]; 10 min after administration): 10.19 ± 3.35 % ID/g; Radioactivity distribution Bladder (including urine) ([2]; 10 min after administration): 0.22 ± 0.08 % ID/g; Radioactivity distribution Blood ([2]; 10 min after administration): 0.08 ± 0.01 % ID/g; Radioactivity distribution Fat ([2]; 10 min after administration): 0.08 ± 0.02 % ID/g; Radioactivity distribution Femur ([2]; 10 min after administration): 0.63 ± 0.08 % ID/g; Radioactivity distribution Heart ([2]; 10 min after administration): 0.32 ± 0.08 % ID/g; Radioactivity distribution Kidney ([2]; 10 min after administration): 1.70 ± 0.40 % ID/g; Radioactivity distribution Large intestine ([2]; 10 min after administration): 0.15 ± 0.02 % ID/g; Radioactivity distribution Liver ([2]; 10 min after administration): 5.39 ± 0.99 % ID/g; Radioactivity distribution Lung ([2]; 10 min after administration): 0.63 ± 0.08 % ID/g; Radioactivity distribution Muscle (lower limbs) ([2]; 10 min after administration): 0.23 ± 0.24 % ID/g; Radioactivity distribution Remaining whole body ([2]; 10 min after administration): 0.22 ± 0.03 % ID/g; Radioactivity distribution Small intestine ([2]; 10 min after administration): 1.03 ± 0.14 % ID/g; Radioactivity distribution Spleen ([2]; 10 min after administration): 3.85 ± 0.65 % ID/g; Radioactivity distribution Stomach ([2]; 10 min after administration): 0.56 ± 0.17 % ID/g; Radioactivity distribution Testis ([2]; 10 min after administration): 0.05 ± 0.01 % ID/g; Radioactivity distribution Whole brain ([2]; 10 min after administration): 0.01 ± 0.00 % ID/g; Adrenal gland/blood ratio of radioactivity accumulation ([2]; 30 min after administration): 249.08 ± 51.81; Adrenal gland/fat ratio of radioactivity accumulation ([2]; 30 min after administration): 352.33 ± 208.06; Adrenal gland/kidney ratio of radioactivity accumulation ([2]; 30 min after administration): 18.18 ± 4.58; Adrenal gland/liver ratio of radioactivity accumulation ([2]; 30 min after administration): 3.58 ± 0.82; Adrenal gland/muscle ratio of radioactivity accumulation ([2]; 30 min after administration): 179.35 ± 63.77; Adrenal gland/small intestine ratio of radioactivity accumulation ([2]; 30 min after administration): 11.12 ± 2.64; Radioactivity distribution Adrenal gland ([2]; 30 min after administration): 19.61 ± 4.29 % ID/g; Radioactivity distribution Bladder (including urine) ([2]; 30 min after administration): 1.17 ± 0.77 % ID/g; Radioactivity distribution Blood ([2]; 30 min after administration): 0.08 ± 0.01 % ID/g; Radioactivity distribution Fat ([2]; 30 min after administration): 0.07 ± 0.02 % ID/g; Radioactivity distribution Femur ([2]; 30 min after administration): 0.71 ± 0.18 % ID/g; Radioactivity distribution Heart ([2]; 30 min after administration): 0.27 ± 0.06 % ID/g; Radioactivity distribution Kidney ([2]; 30 min after administration): 1.10 ± 0.16 % ID/g; Radioactivity distribution Large intestine ([2]; 30 min after administration): 0.20 ± 0.02 % ID/g; Radioactivity distribution Liver ([2]; 30 min after administration): 5.55 ± 0.80 % ID/g; Radioactivity distribution Lung ([2]; 30 min after administration): 0.43 ± 0.07 % ID/g; Radioactivity distribution Muscle (lower limbs) ([2]; 30 min after administration): 0.12 ± 0.03 % ID/g; Radioactivity distribution Remaining whole body ([2]; 30 min after administration): 0.18 ± 0.03 % ID/g; Radioactivity distribution Small intestine ([2]; 30 min after administration): 1.78 ± 0.21 % ID/g; Radioactivity distribution Spleen ([2]; 30 min after administration): 4.57 ± 1.32 % ID/g; Radioactivity distribution Stomach ([2]; 30 min after administration): 0.73 ± 0.11 % ID/g; Radioactivity distribution Testis ([2]; 30 min after administration): 0.06 ± 0.01 % ID/g; Radioactivity distribution Whole brain ([2]; 30 min after administration): 0.01 ± 0.00 % ID/g; Adrenal gland/blood ratio of radioactivity accumulation ([2]; 60 min after administration): 247.32 ± 64.42; Adrenal gland/fat ratio of radioactivity accumulation ([2]; 60 min after administration): 397.01 ± 160.35; Adrenal gland/kidney ratio of radioactivity accumulation ([2]; 60 min after administration): 18.96 ± 4.83; Adrenal gland/liver ratio of radioactivity accumulation ([2]; 60 min after administration): 5.20 ± 1.19; Adrenal gland/muscle ratio of radioactivity accumulation ([2]; 60 min after administration): 236.89 ± 62.76; Adrenal gland/small intestine ratio of radioactivity accumulation ([2]; 60 min after administration): 7.66 ± 2.34; Radioactivity distribution Adrenal gland ([2]; 60 min after administration): 21.34 ± 5.24 % ID/g; Radioactivity distribution Bladder (including urine) ([2]; 60 min after administration): 2.41 ± 0.97 % ID/g; Radioactivity distribution Blood ([2]; 60 min after administration): 0.09 ± 0.01 % ID/g; Radioactivity distribution Fat ([2]; 60 min after administration): 0.06 ± 0.03 % ID/g; Radioactivity distribution Femur ([2]; 60 min after administration): 0.77 ± 0.13 % ID/g; Radioactivity distribution Heart ([2]; 60 min after administration): 0.26 ± 0.03 % ID/g; Radioactivity distribution Kidney ([2]; 60 min after administration): 1.13 ± 0.17 % ID/g; Radioactivity distribution Large intestine ([2]; 60 min after administration): 0.38 ± 0.22 % ID/g; Radioactivity distribution Liver ([2]; 60 min after administration): 4.11 ± 0.66 % ID/g; Radioactivity distribution Lung ([2]; 60 min after administration): 0.45 ± 0.05 % ID/g; Radioactivity distribution Muscle (lower limbs) ([2]; 60 min after administration): 0.09 ± 0.01 % ID/g; Radioactivity distribution Remaining whole body ([2]; 60 min after administration): 0.18 ± 0.02 % ID/g; Radioactivity distribution Small intestine ([2]; 60 min after administration): 2.85 ± 0.37 % ID/g; Radioactivity distribution Spleen ([2]; 60 min after administration): 4.40 ± 1.15 % ID/g; Radioactivity distribution Stomach ([2]; 60 min after administration): 1.02 ± 0.19 % ID/g; Radioactivity distribution Testis ([2]; 60 min after administration): 0.08 ± 0.01 % ID/g; Radioactivity distribution Whole brain ([2]; 60 min after administration): 0.02 ± 0.00 % ID/g; stability in human plasma [3]: hardly metabolized and decomposed in the plasma; Radiochemical purity after incubation in human plasma ([3]; TLC analysis): 97%
